Experimental findings from patent US12655385B2, “Cell culture compositions with antioxidants and methods for polypeptide production” (Genentech, Inc., priority 2013, dated 2026) are described below.

Assay [1] deals with antibody producing CHO cells. The experiment in a line: 2-liter stirred bioreactor fed-batch cell culture in Media 1/Media 2 with hypotaurine or carboxymethylcysteine. The settings on record: for Growth as measured by VCC: 12.95 mM hypotaurine or 10 mM carboxymethylcysteine in Media 1 (FIG. 7A); for cell viability: 12.95 mM hypotaurine or 10 mM carboxymethylcysteine in Media 1 (FIG. 7B); for antibody titer (HPLC): 12.95 mM hypotaurine or 10 mM carboxymethylcysteine in Media 1 (FIG. 8). The format is cell-based, Chinese Hamster. As to the method: Antibody producing CHO cells were inoculated at approximately 1.0×10^6 cells/mL in 2-liter stirred bioreactors (Applikon, Foster City, CA) containing 1 L of basal Media 1 supplemented with 12.95 mM hypotaurine or 10 mM carboxymethylcysteine (CAS number 638-23-3). Cells were cultured in fed-batch mode with addition of 100 mL of feed Media 2 per liter of cell culture fluid at days 3, 6 and 9 for initiation of the production phase. A positive control was included by culturing cells in Media 1 and 2 without hypotaurine supplementation. The concentration of glucose was analyzed every day and if the glucose concentration fell below 2 g/L, it was replenished from a […] stock solution of glucose for prevention of glucose depletion. Reactors were equipped with calibrated dissolved oxygen, pH and temperature probes. Dissolved oxygen was controlled on-line through sparging with air and/or oxygen. pH was controlled through addition of CO2 or Na2CO3 and antifoam was added to the cultures as needed. The cell cultures were maintained at pH 7.0 and a temperature of 37° C. from days 0 through 3, and then at 35° C. after day 3. The cell cultures were agitated at 275 rpm and the dissolved oxygen level was at 30% of air saturation. Osmolality was monitored using an osmometer from Advanced Instruments (Norwood, MA). Offline pH and metabolite concentrations were also determined daily using a Nova Bioprofile 400 (Nova Biomedical, Waltham, MA). VCC and cell viability was measured daily using a ViCell® automated cell counter (Beckman Coulter, Fullerton, CA). The cell culture fluid was collected daily by centrifuging 1 mL of cell culture fluid for determination of antibody titer using high performance liquid chromatography. At the end of the cell culture duration on day 14, when the amount of protein in the culture was approximately 2-10 g/L, the cell culture fluid from all samples was harvested by centrifugation. The monoclonal antibody in the harvested cell culture fluid was purified using protein A affinity chromatography. The protein A pool was concentrated to 150 g/L using Amicon Centricon centrifugal filter devices (Millipore Corporation, Billerica, MA). Color intensity of the concentrated antibody composition was measured in the concentrated protein A pool using two different assays wherein higher numerical values indicated higher color intensity and lower numerical values indicated lower color intensity. […] This color intensity reduction was confirmed by using a second color assay which detected an approximate 17% and 13% color intensity reduction in antibody compositions isolated from cell cultured in media supplemented with hypotaurine and carboxymethylcysteine, respectively (FIG. 9B).

The subject of assay [2] is IgG1 monoclonal antibody. The experiment in a line: Antioxidant screening: incubation of Media 1/Media 2 mixture spiked with antibody, color intensity of purified antibody. The note with it: 1X test concentration (hypotaurine 9.16 mM, taurine 5.00 mM), 5 days 37° C.; normalized to positive control. As to the method: For antioxidant screening, a total volume of 40 ml media was prepared by mixing 1 part basal Media 1 and 0.3 part feed Media 2 to mirror a representative ratio of media used in cell culture conditions (Table 5). […] The samples were incubated at 37° C. with shaking at 250 rpm for a five day incubation period.
After incubation, the monoclonal antibody was purified using affinity chromatography. Color intensity of the concentrated antibody composition was measured in the purified pool using an assay wherein higher numerical values indicate higher color intensity and lower numerical values indicate lower color intensity. The numerical results were normalized to the positive control, where the value for the positive control was set at 0% change in color intensity.

In assay [3] the test system is monoclonal antibody. The experiment in a line: Screen of taurine, carnosine and aminoguanidine in culture media, relative color intensity of antibody. The note with it: 27.2 g/L aminoguanidine hydrochloride, 7 days 37° C. 250 rpm (FIG. 10). As to the method:
In order to identify a compound that reduces in antibody compositions and works under cell culture conditions, a screen assay in cell free medium was conducted. Taurine, carnosine and aminoguanidine were chosen for screening. These compounds were dissolved in 25 mL culture media at the concentration of 1.2 g/L (taurine), 13.6 g/L (carnosine), and 27.2 g/L (aminoguanidine hydrochloride). After pH adjustment to a range from 6.8 to 7.2 and sterile filtration with Steriflip filter units (Millipore, Billerica, MA) the solution was incubated in 50 mL Falcon tubes (BD Biosciences, San Jose, CA) equipped with TubeSpin caps (TPP Techno Plastic Products AG, Trasadingen, Switzerland). CHO cells were incubated for 7 days in a moisture controlled cell culture incubator at 37° C. and 250 rpm with no protection from light to produce the monoclonal antibody.
The monoclonal antibody in the harvested cell culture fluid (HCCF) and the incubation broth was further purified with affinity chromatography. Color intensity of the concentrated antibody composition was measured in the purified pool using an assay wherein higher numerical values indicated higher color intensity and lower numerical values indicated lower color intensity.
The relative color intensity for antibodies produced in culture medium containing taurine, carnosine, or aminoguanidine are shown in FIG. 10.

[4] abbreviates: listed as carboxy methyl cysteine.

Structures can show the parent of a compound that is named as a salt.

Consider `N[C@@H](CSCC(=O)O)C(=O)O` [carboxymethylcysteine, (2R)-2-amino-3-[(carboxymethyl)sulfanyl]propanoic acid], for which, in assay [1], the “Growth as measured by VCC” value is reported as “comparable among all cell cultures tested”, the cell viability entry is “comparable among all cell cultures tested” and the “antibody titer (HPLC)” value is “comparable levels of antibody titers”. In assay [1] (setting [4]), the “Growth as measured by VCC” value is given as “did not compromise”, the cell viability result was “did not compromise” and the “antibody titer (HPLC)” value is on record as “did not significantly reduce”. Besides, in assay [1] (12.95 mM hypotaurine or 10 mM carboxymethylcysteine, protein A pool concentrated to 150 g/L (FIG. 9B)), the “color intensity reduction of antibody compositions, second color assay” value was approximately 13%.
As for `NCCS(=O)(=O)O` [Taurine, 2-aminoethane-1-sulfonic acid], the “reduction of color intensity of the antibody-containing compositions” value in assay [2] is “approximately 5%”.
Regarding `N=C(N)NN` [aminoguanidine, aminoguanidine hydrochloride], the decrease of color entry in assay [3] is “about 71%”.
